Measurements from article PMC11980595, “Pyruvate kinase directly generates GTP in glycolysis, supporting growth and contributing to guanosine toxicity” (mBio, 2025).

Legend:
Format in all cases: biochemical
E. faecalis PK = target: T1, E. faecalis PK (Enterococcus faecalis, UniProt Q836R2); experiment: pyruvate kinase activity assay, catalytic efficiency; conditions: co-substrate PEP; only kcat/Km, in figure
T1 construct: gene pyk; construct and purification not described
T1 sequence (Q836R2 1-585): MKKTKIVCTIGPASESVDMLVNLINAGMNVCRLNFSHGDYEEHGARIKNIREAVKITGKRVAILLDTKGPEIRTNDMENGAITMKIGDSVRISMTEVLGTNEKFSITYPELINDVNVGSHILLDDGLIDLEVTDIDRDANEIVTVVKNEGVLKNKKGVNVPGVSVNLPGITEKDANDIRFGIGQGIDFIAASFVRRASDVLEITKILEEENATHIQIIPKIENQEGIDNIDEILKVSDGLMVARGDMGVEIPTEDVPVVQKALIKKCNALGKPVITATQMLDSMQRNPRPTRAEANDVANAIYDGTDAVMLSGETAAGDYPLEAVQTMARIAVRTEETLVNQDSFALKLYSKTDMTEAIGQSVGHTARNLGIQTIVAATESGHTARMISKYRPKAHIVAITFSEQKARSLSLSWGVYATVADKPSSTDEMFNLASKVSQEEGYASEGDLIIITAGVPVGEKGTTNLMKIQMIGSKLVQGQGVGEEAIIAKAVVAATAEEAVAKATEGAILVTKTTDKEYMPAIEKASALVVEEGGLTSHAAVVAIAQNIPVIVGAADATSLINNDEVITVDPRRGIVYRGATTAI

L. monocytogenes PK = target: T2, L. monocytogenes PK (Listeria monocytogenes, UniProt Q8Y6W1); experiment: as above; conditions: co-substrate PEP; only kcat/Km, in figure
T2 construct: gene pykA; construct and purification not described
T2 sequence (Q8Y6W1 1-585): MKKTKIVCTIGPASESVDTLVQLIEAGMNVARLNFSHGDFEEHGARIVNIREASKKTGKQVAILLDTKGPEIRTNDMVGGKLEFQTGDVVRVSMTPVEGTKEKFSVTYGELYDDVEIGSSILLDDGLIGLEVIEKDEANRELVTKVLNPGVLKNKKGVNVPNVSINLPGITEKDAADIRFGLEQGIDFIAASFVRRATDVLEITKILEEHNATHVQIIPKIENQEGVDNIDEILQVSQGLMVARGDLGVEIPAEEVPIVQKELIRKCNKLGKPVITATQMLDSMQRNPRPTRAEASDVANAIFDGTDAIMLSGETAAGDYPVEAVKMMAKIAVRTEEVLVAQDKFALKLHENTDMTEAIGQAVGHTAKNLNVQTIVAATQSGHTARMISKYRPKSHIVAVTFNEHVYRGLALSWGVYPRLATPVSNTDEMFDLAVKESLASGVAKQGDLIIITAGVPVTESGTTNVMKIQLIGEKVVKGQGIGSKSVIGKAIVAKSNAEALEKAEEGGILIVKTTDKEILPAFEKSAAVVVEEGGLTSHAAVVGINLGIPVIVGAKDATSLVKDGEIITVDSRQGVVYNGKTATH

[1] = target: T3, B. subtilis pyruvate kinase (PK) (Bacillus subtilis, UniProt P80885); experiment: activation of initial velocity, lactate dehydrogenase-coupled assay; conditions: activator at 1 mM; NDP varied, co-substrate PEP
T3 construct: gene pyk
T3 sequence (P80885 1-585): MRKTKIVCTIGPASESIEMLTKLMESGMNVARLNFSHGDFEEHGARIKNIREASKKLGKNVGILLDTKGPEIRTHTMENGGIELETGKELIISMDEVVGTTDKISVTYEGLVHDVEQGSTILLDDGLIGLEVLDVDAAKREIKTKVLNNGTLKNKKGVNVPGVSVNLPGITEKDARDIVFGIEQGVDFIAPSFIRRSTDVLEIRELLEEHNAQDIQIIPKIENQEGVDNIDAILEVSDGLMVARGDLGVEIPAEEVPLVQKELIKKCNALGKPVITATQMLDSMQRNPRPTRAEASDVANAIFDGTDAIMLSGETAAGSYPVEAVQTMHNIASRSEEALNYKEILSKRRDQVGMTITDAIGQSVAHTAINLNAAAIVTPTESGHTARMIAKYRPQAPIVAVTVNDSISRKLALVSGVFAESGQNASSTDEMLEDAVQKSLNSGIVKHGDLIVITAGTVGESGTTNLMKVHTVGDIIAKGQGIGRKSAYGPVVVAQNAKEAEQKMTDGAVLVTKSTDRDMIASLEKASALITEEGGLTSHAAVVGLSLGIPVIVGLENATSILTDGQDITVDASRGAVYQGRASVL

In the case of `Nc1ncnc2c1ncn2[C@@H]1O[C@H](COP(=O)(O)OP(=O)(O)O)[C@@H](O)[C@H]1O` [ADP], the “pyruvate kinase activity assay, catalytic efficiency” value (“pyruvate kinase activity assay” for short) (E. faecalis PK) is reported as “E. faecalis PK is also able to use ADP with high efficiency” and the “pyruvate kinase activity assay” value (L. monocytogenes PK) is reported as “L. monocytogenes PK can use ADP and UDP but less efficiently than GDP”.

In the case of `Nc1ncnc2c1ncn2[C@@H]1O[C@H](COP(=O)(O)O)[C@@H](O)[C@H]1O` [AMP], the “activation of initial velocity, lactate dehydrogenase-coupled assay” value [1] is reported as “when AMP, a known activator of pyruvate kinase, was added, we observed a marked increase”.

In the case of `Nc1nc2c(ncn2[C@@H]2O[C@H](COP(=O)(O)OP(=O)(O)O)[C@@H](O)[C@H]2O)c(=O)[nH]1` [GDP], the “pyruvate kinase activity assay” value (E. faecalis PK) is reported as “Enterococcus faecalis and Listeria monocytogenes also showed highest catalytic efficiencies on GDP” and the “pyruvate kinase activity assay” value (L. monocytogenes PK) is reported as “Enterococcus faecalis and Listeria monocytogenes also showed highest catalytic efficiencies on GDP”.
